Experimental data: paper PMC8082450, “Protein Serine/Threonine Phosphatase Type 2C of Leishmania mexicana” (Frontiers in Cellular and Infection Microbiology, 2021)

Target: T1, LmxPP2C (Leishmania mexicana, UniProt E9AXF3)
T1 construct: gene LMXM_25_0750
T1 sequence (E9AXF3 1-406): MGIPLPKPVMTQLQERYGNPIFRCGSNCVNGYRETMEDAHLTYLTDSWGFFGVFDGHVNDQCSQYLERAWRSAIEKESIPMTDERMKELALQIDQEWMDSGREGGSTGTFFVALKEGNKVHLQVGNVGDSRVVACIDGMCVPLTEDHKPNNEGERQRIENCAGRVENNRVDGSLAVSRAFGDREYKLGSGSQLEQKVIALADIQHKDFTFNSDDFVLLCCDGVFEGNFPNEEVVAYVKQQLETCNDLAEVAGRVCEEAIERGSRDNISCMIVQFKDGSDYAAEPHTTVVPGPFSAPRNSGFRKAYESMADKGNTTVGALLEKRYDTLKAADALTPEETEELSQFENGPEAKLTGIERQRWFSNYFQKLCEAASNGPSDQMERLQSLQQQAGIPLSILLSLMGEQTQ
Experiment: phosphatase inhibition assay, p-NPP hydrolysis at […] nm
Assay type: biochemical

`COC[C@@H]([C@H](O)[C@H](O)C(=O)NCC[C@H](C)c1nc(/C=C/C[C@@H]2O[C@]3(C[C@@H](O)[C@@H]2C)O[C@H]([C@H](C[C@H](O)[C@H](C)[C@H](O)[C@H](C)/C=C(C)/C(C)=C/C=C/C(C)=C\C#N)OC)[C@H](OP(=O)(O)O)C3(C)C)co1)N(C)C` [calyculin] showed an inhibition at 0.005 µM (read-out: % inhibition at 5 nM) of 18%.
For `C=C1[C@@H](O)[C@@H]2O[C@]3(CC[C@H](/C=C/[C@@H](C)[C@@H]4CC(C)=C[C@@]5(O[C@H](C[C@@](C)(O)C(=O)O)CC[C@H]5O)O4)O3)CC[C@H]2O[C@@H]1[C@@H](O)C[C@H](C)[C@H]1O[C@@]2(CCCCO2)CC[C@H]1C` [okadaic acid], the inhibition at 1 µM (read-out: % inhibition at 1 μM) was 14%.
Molecule `C[n+]1cc2c3c(ccc2c2ccc4cc5c(cc4c21)OCO5)OCO3` [sanguinarine] has an inhibition at 20 µM of 81%.
